Results as given in US8158792B2, “Spiropiperidines for use as tryptase inhibitors” (Janssen Pharmaceutica N.V., priority 2007, dated 2012).
pIC50: −log10 of the molar value.

Molecular target: human lung tryptase
Experiment: β-Tryptase In-Vitro Enzyme Assay
Assay type: biochemical
Settings: human lung tryptase 1 nM, substrate H-D-HHT-Ala-Arg-pNa 500 μM, pH 7.4, room temperature
Experimental: The β-tryptase assay was conducted with human lung tryptase (Cortex Biochem #CP3033) in an aqueous buffer (10 mM Tris, 10 mM Hepes, 150 mM NaCl, 0.1% PEG 8000, pH 7.4) using the chromogenic substrate H-D-HHT-Ala-Arg-pNa. […] Percent inhibition was calculated by comparing the initial reaction velocity of samples without inhibitor to those with inhibitor. The initial reaction velocities were analyzed using Microsoft Excel.

| SMILES | pIC50 |
| --- | --- |
| NCc1ccc2c(c1)C1(CCN(C(=O)c3ccc(C#Cc4ccccc4)o3)CC1)CN2C(N)=O [Cpd 325, 1-(5-phenylethynyl-furan-2-yl)carbonyl-1′-aminocarbonyl-5′-aminomethyl-spiro[piperidine-4,3′-(2H)-indole]] | 7.60 |
| NCc1ccc2c(c1)C1(CCN(C(=O)CC(c3ccccc3)c3ccccc3)CC1)CO2 [Cpd 354, 1-(2,2-diphenylethyl)carbonyl-5′-aminomethyl-spiro[piperidine-4,3′-(2H)-benzo[b]furan]] | 6.37 |
| COC(=O)N1CC2(CCN(C(=O)c3ccc(C#Cc4ccccc4)o3)CC2)c2cc(CN)ccc21 [Cpd 323, 1-(5-phenylethynyl-furan-2-yl)carbonyl-1′-methoxycarbonyl-5′-aminomethyl-spiro[piperidine-4,3′-(2H)-indole]] | 6.96 |
| Cc1ccc(C#Cc2ccc(C(=O)N3CCC4(CC3)COc3ccc(CN)cc34)o2)cc1 [Cpd 170, 1-[5-(4-methyl-phenylethynyl)-furan-2-yl]carbonyl-5′-aminomethyl-spiro[piperidine-4,3′-(2H)-benzo[b]furan]] | 8.08 |
| COc1cccc(/C=C/C(=O)N2CCC3(CC2)COc2ccc(CN)cc23)c1 [Cpd 184, (E)-1-(3-methoxy-phenylethenyl)carbonyl-5′-aminomethyl-spiro[piperidine-4,3′-(2H)-benzo[b]furan]] | 6.68 |
| NCc1ccc2c(c1)C1(CCN(C(=O)c3ccc(C#Cc4ccccc4)o3)CC1)CN2S(=O)(=O)c1cccc(C(=O)O)c1 [Cpd 331, 1-(5-phenylethynyl-furan-2-yl)carbonyl-1′-(3-carboxy-phenyl)sulfonyl-5′-aminomethyl-spiro[piperidine-4,3′-(2H)-indole]] | 7.39 |
| N#Cc1cccc(C(=O)N2CCC3(CC2)COc2ccc(CN)cc23)c1 [Cpd 66, 1-(3-cyano-phenyl)carbonyl-5′-aminomethyl-spiro[piperidine-4,3′-(2H)-benzo[b]furan]] | 5.72 |
| NCc1ccc2c(c1)C1(CCN(C(=O)Cc3cccc(Oc4ccccc4)c3)CC1)CO2 [Cpd 88, 1-(3-phenoxy-benzyl)carbonyl-5′-aminomethyl-spiro[piperidine-4,3′-(2H)-benzo[b]furan]] | 7.59 |
| NCc1ccc2c(c1)C1(CCN(C(=O)c3ccc(Sc4ccccc4)o3)CC1)CO2 [Cpd 23, 1-[(5-phenylthio)-furan-2-yl]carbonyl-5′-aminomethyl-spiro[piperidine-4,3′-(2H)-benzo[b]furan]] | 7.05 |
| Cc1cc(C(=O)N2CCC3(CC2)COc2ccc(CN)cc23)ccc1Cl [Cpd 25, 1-(3-methyl-4-chloro-phenyl)carbonyl-5′-aminomethyl-spiro[piperidine-4,3′-(2H)-benzo[b]furan]] | 6.85 |
| Cc1ccc(-c2ccc(C(=O)N3CCC4(CC3)COc3ccc(CN)cc34)o2)cc1 [Cpd 131, 1-[5-(4-methyl-phenyl)-furan-2-yl]carbonyl-5′-aminomethyl-spiro[piperidine-4,3′-(2H)-benzo[b]furan]] | 7.14 |
| Cc1cc(C(=O)N2CCC3(CC2)COc2ccc(CN)cc23)sc1Br [Cpd 259, 1-(4-methyl-5-bromo-thien-2-yl)carbonyl-5′-aminomethyl-spiro[piperidine-4,3′-(2H)-benzo[b]furan]] | 7.26 |
| Cc1ccc2nc(C(=O)N3CCC4(CC3)COc3ccc(CN)cc34)cn2c1 [Cpd 119, 1-(6-methyl-imidazo[1,2-a]pyridin-2-yl)carbonyl-5′-aminomethyl-spiro[piperidine-4,3′-(2H)-benzo[b]furan]] | 5.85 |
| NCc1ccc2c(c1)C1(CCN(C(=O)c3cc(Br)c(Br)s3)CC1)CO2 [Cpd 278, 1-(4,5-dibromo-thien-2-yl)carbonyl-5′-aminomethyl-spiro[piperidine-4,3′-(2H)-benzo[b]furan]] | 7.92 |
| NCc1ccc2c(c1)C1(CCN(C(=O)c3sc4cc(Br)ccc4c3Cl)CC1)CO2 [Cpd 230, 1-(3-chloro-6-bromo-benzo[b]thien-2-yl)carbonyl-5′-aminomethyl-spiro[piperidine-4,3′-(2H)-benzo[b]furan]] | 6.85 |
| NCc1ccc2c(c1)C1(CCN(C(=O)c3ccc(C(=O)c4ccccc4)cc3)CC1)CO2 [Cpd 6, 1-(4-benzoyl-phenyl)carbonyl-5′-aminomethyl-spiro[piperidine-4,3′-(2H)-benzo[b]furan]] | 5.24 |
| CCCCSc1sc(C(=O)N2CCC3(CC2)COc2ccc(CN)cc23)c2c1C(=O)CCC2 [Cpd 229, 1-(3-butylthio-4-oxo-5,6,7-trihydro-4H-benzo[c]thien-1-yl)carbonyl-5′-aminomethyl-spiro[piperidine-4,3′-(2H)-benzo[b]furan]] | 8.28 |
| NCc1ccc2c(c1)C1(CCN(C(=O)c3ccc(C4CCCCC4)cc3)CC1)CO2 [Cpd 73, 1-(4-cyclohexyl-phenyl)carbonyl-5′-aminomethyl-spiro[piperidine-4,3′-(2H)-benzo[b]furan]] | 5.60 |
| NCc1ccc2c(c1)C1(CCN(C(=O)c3ccc(Cl)c(Cl)c3)CC1)C(=O)N2 [Cpd 315, 1-(3,4-dichlorophenyl)carbonyl-2′-oxo-5′-aminomethyl-spiro[piperidine-4,3′-(2H)-indole]] | 6.32 |
| NCc1ccc2c(c1)C1(CCN(C(=O)c3ccc(/C=C\c4ccccc4)o3)CC1)CO2 [Cpd 77, (Z)-1-(5-phenylethenyl-furan-2-yl)carbonyl-5′-aminomethyl-spiro[piperidine-4,3′-(2H)-benzo[b]furan]] | 7.00 |
| NCc1ccc2c(c1)C1(CCN(C(=O)c3ccc(Br)cc3)CC1)CO2 [Cpd 59, 1-(4-bromo-phenyl)carbonyl-5′-aminomethyl-spiro[piperidine-4,3′-(2H)-benzo[b]furan]] | 6.44 |
| NCc1ccc2c(c1)C1(CCN(C(=O)/C(=C/c3ccccc3)c3ccccc3)CC1)CO2 [Cpd 190, (E)-1-(1-phenyl-2-phenylethenyl)carbonyl-5′-aminomethyl-spiro[piperidine-4,3′-(2H)-benzo[b]furan]] | 6.23 |
| Cn1cnc(S(=O)(=O)N2CC3(CCN(C(=O)c4ccc(C#Cc5ccccc5)o4)CC3)c3cc(CN)ccc32)c1 [Cpd 336, 1-(5-phenylethynyl-furan-2-yl)carbonyl-1′-(1-methyl-imidazol-4-yl)sulfonyl-5′-aminomethyl-spiro[piperidine-4,3′-(2H)-indole]] | 7.55 |
| CC(=O)N/C(=C\c1ccccc1)C(=O)N1CCC2(CC1)COc1ccc(CN)cc12 [Cpd 205, (Z)-1-(1-methylcarbonylamino-2-phenylethenyl)carbonyl-5′-aminomethyl-spiro[piperidine-4,3′-(2H)-benzo[b]furan]] | 6.13 |
| CC(C)(C)c1cc(C(=O)N2CCC3(CC2)COc2ccc(CN)cc23)cc(C(C)(C)C)c1 [Cpd 133, 1-(3,5-di-tert-butyl-phenyl)carbonyl-5′-aminomethyl-spiro[piperidine-4,3′-(2H)-benzo[b]furan]] | 7.09 |
| NCc1ccc2c(c1)C1(CCN(C(=O)/C=C/c3ccccc3)CC1)CO2 [Cpd 112, (E)-1-(phenylethenyl)carbonyl-5′-aminomethyl-spiro[piperidine-4,3′-(2H)-benzo[b]furan]] | 6.74 |
| NCc1ccc2c(c1)C1(CCN(C(=O)c3ccc(F)c(F)c3)CC1)CO2 [Cpd 26, 1-(3,4-difluoro-phenyl)carbonyl-5′-aminomethyl-spiro[piperidine-4,3′-(2H)-benzo[b]furan]] | 6.64 |
